Assay results as given in patent US7807663B2, “Therapeutic agents for diabetes” (Ajinomoto Co., Inc., priority 2003, dated 2010).

Experiments:
[1] = test system: C57BL/KsJ-db/bdJcl mice; assay: Combinational effect with glitazone (pioglitazone) using db/db mice, oral glucose load (Examples 5 and 6); type: in vivo; details: single oral administration combined with pioglitazone 10 mg/kg/day oral for 10 days, compared with alone groups
Procedure: The oral glucose load experiments are conducted using C57BL/KsJ-db/bdJcl mice in the conditions with or without the oral administeration of pioglitazone (10 mg/kg/day) for 10 days and with or without a single oral administration of the compound (III).
The same experiment is conducted as that of Example 5 except that the compounds of the Compound Nos. 6, 8, 62, 80, 81, 88, 91, 96, 105, 106, 129, 130, 131 and 132 in Tables 1 and 2 are used instead of the compound (III).

[2] = test system: GK rats; assay: Combinational effect with insulin secretagogue (gliclazide) using GK rats (Example 2); type: in vivo; details: combined with gliclazide, compared with alone groups, same experiment as Example 1
Procedure: The compound (II) (100 mg/kg) was orally administered to C57BL/6NCrj mice (11 week age, male) and soon after that, gliclazide (3 mg/kg) was orally administered. After administration, the blood was taken from their caudal veins over time to determine the blood glucose level. Area under the curve of blood glucose level changes until 70 minutes after the administration was set as an index and variations from a control group (Vehicle administered group) were compared.
The same experiment is conducted as that of Example 1 except that the compounds of the Compound Nos. 6, 8, 62, 80, 81, 88, 91, […], 105, 106, 129, 130, 131 and 132 in Tables 1 and 2 are used instead of the compound (II), and GK rats are used instead of normal mice.

[3] = test system: KK-Ay mice; assay: Combinational effect with biguanide (metformin) using KK-Ay mice (Example 4); type: in vivo; details: combined with metformin, compared with alone groups, same experiment as Example 3
Procedure: The compound (III) (30 mg/kg) was orally administered to C57BL/KsJ-db/bdJcl mice (10 week age, male) and soon after that, metformin (100 mg/kg) was orally administered. 60 minutes after administration, the blood was taken from their caudal veins to determine the blood glucose level.
The same experiment is conducted as that of Example 3 except that the compounds of the Compound Nos. 6, 8, 62, 80, 81, 88, 91, 96, 105, 106, 129, 130, 131 and 132 in Tables 1 and 2 are used instead of the compound (III), and KK-Ay mice are used instead of db/bd mice.

[4] = test system: adipose cells of rats; assay: Evaluation of the sugar transportation activity (2-[14C(U)]-deoxy-D-glucose incorporation); type: cell-based, Wistar rats; details: concentration with reinforcing effect of 50% of that of insulin (100 nM) = 100%; rat adipose cells, 30 min pre-culture at 37° C., 5 min uptake
Procedure: 1. Preparation of Adipose Cells of Rats:
After the decapitation and venesection of 6 male Wistar rats (body weight: 150 to 200 g), an incision was made in the abdomen of each rat to extract 6 g in total of epididymal adipose tissues. The tissues were finely cut into 2 mm×2 mm pieces in 6 ml of KRH (Krebs-Ringer Hepes, composition: 130 mM of sodium chloride, 4.7 mM of potassium chloride, 1.2 mM of potassium dihydrogenphosphate, 1.2 mM of magnesium sulfate, 1 mM of calcium chloride and 25 mM of Hepes, pH=7.6) containing 5% of BSA (bovine serum albumin). 24 mg of collagenase (type I) was added thereto and the digestion treatment was conducted for about 40 minutes to obtain about 6 ml of isolated adipose cells. The collagenase was removed by the buffer exchange. 2% BSA/KRH solution was added to the residue for the re-suspension to obtain 45 ml of an adipose cell suspension.
2. Evaluation of the Sugar Transportation Activity:
The sugar transportation activity of the compound (I) of the present invention was evaluated with reference to a method described in a literature [Annual Review of Biochemistry, Vol. 55, p. 1059 (1986)]. In the test, 200 μL of the adipose cell suspension was poured in each polystyrene test tube, 100 μL of the solution of the test substance (by dilution of 10 mg/mL dimethyl sulfoxide solution with KRH) was added thereto, and the obtained mixture was shaken and then cultured at 37° C. for 30 minutes. The sugar transportation activity was evaluated by measuring the quantity of 2-[^14C(U)]-deoxy-D-glucose incorporated per a unit time. Namely, 2-[^14C(U)]-deoxy-D-glucose was added to the adipose cell suspension after the pre-culture (the final concentration: 0.5 μCi/sample). 5 minutes after, cytochalasin B (final concentration: 10 μM) was added to the mixture to terminate the sugar transportation. After forming a dinonyl phthalate layer, the obtained mixture was centrifuged to separate the adipose cells from the buffer. The quantity of 2-[^14C(U)]-deoxy-D-glucose contained in the adipose cell layer was determined with a liquid scintillation counter to determine the quantity of the incorporated sugar. In this evaluation system, when insulin (100 nM) having the effect of reinforcing the sugar transportation was used, the effect was about 7 times as high as that obtained in the insulin-free control group.
The results of the evaluation of the sugar transportation activity obtained by using 100 μg/mL of the compound (I) of the present invention are shown in Table 3. The sugar transportation activity in Table 3 was evaluated on the basis of the reinforcing effect of insulin (100 nM). The sugar transportation activity A in Table 3 was determined in terms of the concentration (EC50: μg/mL) of a test compound, having a reinforcing effect corresponding to 50% on the basis of the reinforcing effect of insulin (100 nM) having a reinforcing effect of 100%.
The symbols in Table 3 are as follows: • No: Compound No. in Tables 1 and 2, and • A: sugar transportation activity.

[5] = test system: C57BL/KsJ-db/bdJcl mice; assay: Combinational effect with insulin using db/db mice (Examples 7 and 8); type: in vivo; details: combined with insulin 0.2 U/kg, compared with alone groups, same experiment as Example 3
Procedure: The compound (III) (30 mg/kg) was orally administered to C57BL/KsJ-db/bdJcl mice (10 week age, male) and soon after that, metformin (100 mg/kg) was orally administered. 60 minutes after administration, the blood was taken from their caudal veins to determine the blood glucose level. The same experiment is conducted as that of Example 3 except that insulin (0.2 U/kg) is used instead of metformin. […] The same experiment is conducted as that of Example 7 except that the compounds of the Compound Nos. 6, 8, 62, 80, 81, 88, 91, 96, 105, 106, 129, 130, 131 and 132 in Tables 1 and 2 are used instead of the compound (III).

| SMILES | hypoglycemic action (oral glucose load) [1] | hypoglycemic action (blood glucose level) [2] | hypoglycemic action (blood glucose level) [3] | A: sugar transportation activity (EC50) [4] [µg/mL] | hypoglycemic action (blood glucose level) [5] |
| --- | --- | --- | --- | --- | --- |
| CSc1ccccc1[C@@H]1C2=C(CNC2=O)N[C@@H]2CCCC[C@H]2N1C(=O)CO [Compound 81] | remarkable hypoglycemic action | remarkable hypoglycemic action | remarkable hypoglycemic action | 2 | remarkable hypoglycemic action |
| CC(=O)N1[C@@H]2CCCC[C@H]2NC2=C(C(=O)NC2)[C@H]1c1ccccc1 [Compound 129] | remarkable hypoglycemic action | remarkable hypoglycemic action | remarkable hypoglycemic action | – | remarkable hypoglycemic action |
| CCC(=O)N1[C@@H]2CCCC[C@H]2NC2=C(C(=O)NC2)[C@H]1c1cccc(F)c1C [Compound 106] | remarkable hypoglycemic action | remarkable hypoglycemic action | remarkable hypoglycemic action | 0.6 | remarkable hypoglycemic action |
| CC(=O)N1[C@@H]2CCCC[C@H]2NC2=C(C(=O)NC2)[C@H]1c1ccccc1C1CC1 [Compound 105] | remarkable hypoglycemic action | remarkable hypoglycemic action | remarkable hypoglycemic action | 0.5 | remarkable hypoglycemic action |
| CCC(=O)N1[C@@H]2CCCC[C@H]2NC2=C(C(=O)NC2)[C@H]1c1ccccc1 [Compound 130] | remarkable hypoglycemic action | remarkable hypoglycemic action | remarkable hypoglycemic action | 1.5 | remarkable hypoglycemic action |
| O=C1NCC2=C1[C@@H](c1ccccc1)N(C(=O)CO)[C@@H]1CCCC[C@H]1N2 [Compound 131] | remarkable hypoglycemic action | remarkable hypoglycemic action | remarkable hypoglycemic action | 1.5 | remarkable hypoglycemic action |
| CCOCC(=O)N1[C@@H]2CCCC[C@H]2NC2=C(C(=O)NC2)[C@H]1c1ccccc1 [Compound 132] | remarkable hypoglycemic action | remarkable hypoglycemic action | remarkable hypoglycemic action | 2.7 | remarkable hypoglycemic action |
| COc1ccccc1[C@@H]1C2=C(CNC2=O)N[C@@H]2CCCC[C@H]2N1C(=O)CC(F)(F)F [Compound 6] | remarkable hypoglycemic action | remarkable hypoglycemic action | remarkable hypoglycemic action | 0.47 | remarkable hypoglycemic action |
| CSc1ccccc1[C@@H]1C2=C(CNC2=O)N[C@@H]2CCCC[C@H]2N1C(C)=O [Compound 80] | remarkable hypoglycemic action | remarkable hypoglycemic action | remarkable hypoglycemic action | 5 | remarkable hypoglycemic action |
| O=C1NCC2=C1[C@@H](c1ccccc1OC1CC1)N(C(=O)CO)[C@@H]1CCCC[C@H]1N2 [Compound 62] | remarkable hypoglycemic action | remarkable hypoglycemic action | remarkable hypoglycemic action | 0.5 | remarkable hypoglycemic action |
| CC(=O)N1[C@@H]2CCCC[C@H]2NC2=C(C(=O)NC2)[C@H]1c1ccccc1C [Compound 88] | remarkable hypoglycemic action | remarkable hypoglycemic action | remarkable hypoglycemic action | 5 | remarkable hypoglycemic action |
| COc1ccccc1[C@@H]1C2=C(CNC2=O)N[C@@H]2CCCC[C@H]2N1C(=O)C1CC1 [Compound 4] | – | – | – | 0.5 | – |
| CCNC(=O)N1[C@@H]2CCCC[C@H]2NC2=C(C(=O)NC2)[C@H]1c1ccccc1OCC [Compound 56] | – | – | – | 12 | – |
| COc1ccccc1[C@@H]1C2=C(CNC2=O)N[C@@H]2CCCC[C@H]2N1C(=O)CCNC(=O)OCc1ccccc1 [Compound 22] | – | – | – | 8 | – |
| CCC(=O)N1[C@@H]2CCCC[C@H]2NC2=C(C(=O)NC2)[C@H]1c1ccccc1Br [Compound 110] | – | – | – | 1.5 | – |
| CC(=O)N1[C@@H]2CCCC[C@H]2NC2=C(C(=O)NC2)[C@H]1c1cccc(F)c1C [Compound 107] | – | – | – | 6 | – |
| CCOc1ccccc1[C@@H]1C2=C(CNC2=O)N[C@@H]2CCCC[C@H]2N1C(=O)CO [Compound 51] | – | – | – | 3.8 | – |
| COc1ccccc1[C@@H]1C2=C(CNC2=O)N[C@@H]2CCCC[C@H]2N1C(C)=O [Compound 1] | – | – | – | 1.3 | – |
| CCOCC(=O)N1[C@@H]2CCCC[C@H]2NC2=C(C(=O)NC2)[C@H]1c1ccc(Cl)cc1 [Compound 141] | – | – | – | 6 | – |
